Data published in US8507498B2, “4, 6-disubstituted aminopyrimidine derivatives as inhibitors of protein kinases” (Ingenium Pharmaceuticals GmbH, priority 2007, dated 2013).
“Also recorded” adds a separate entry of the source.

Assays:
CDK1/CycB = CDK1/CycB (Homo sapiens, UniProt P06493); assay: General kinase assay (Example 80); format: biochemical; settings: ATP 1 μM
Procedure: (§1) The inhibitory effect of compounds according to the present invention on the activity of protein kinases can be measured according to the following protocol: • Reaction Volume: 40 μl • Reaction Time: 60 min • Reaction Temperature: room temperature • Assay Plate: 96 well U bottom plate (Greiner, 650161) • MultiScreen-PH Plate: 96 well MAPH Filter Plates (Millipore, MAPHNOB50) • Filter Washing Solution: 0.75% H3PO4 • Scintillation Liquid Supermix Liquid Scintillator (PerkinElmer, 1200-439) Controls: • Negative Control (C−): 100 mM EDTA (Ethylenediaminetetraacetic acid), no Inhibitor • Positive Control (C+): no Inhibitor Reaction Buffer: • 20 mM Tris (Tris(hydroxymethyl)aminomethane hydrochloride), pH 7.5 • 10 mM MgCl2 • 1 mM DTT Final Assay Concentrations: • Kinase: Use kinase conc. yielding 10% ATP turn over. • ATP: 1 μM • Adenosine 5′-[-^33P]triphosphate:12.5 μCi/ml (Amersham Biosciences, BF1000) • Substrate: Myelin Basic Protein 10 μM (Invitrogen, 13228-010) Pipetting Sequence: • 1) Add 10 μl 4 fold concentrated Substrate+4 fold concentrated ATP in […] concentrated Reaction Buffer to each well of Assay Plate • 2) Add 10 μl 4 fold concentrated inhibitor in 4% DMSO in H2O to each well except to C− and C+wells • 3) Add 10 μl 4% DMSO in H2O to C− and C+wells • 4) Add 10 μl 500 mM EDTA in H2O to C− wells • 5) Add 10 μl 50 μCi/ml Adenosine 5′-[-^33P]triphosphate in H2O to each well • 6) Add 10 μl 4 fold concentrated kinase in Reaction Buffer to each well • 7) Incubate 1 hr at room temperature • 8) Add 10 μl 50 mM EDTA in H2O to each well except to C− wells • 9) Prepare MAPH plates by adding 200 μl 0.75% H3PO4 to each well • 10) Exhaust 0.75% H3PO4 using Millipore vacuum station • 11) Add 60 μl 0.75% H3PO4 to each well of MAPH Filter Plate • 12) Transfer 30 μl sample per well from Assay Plate to corresponding well of MAPH Filter Plate • 13) Incubate 30 min at room temperature • 14) Wash each well of MAPH Filter Plates 3× with 200 μl 0.75% H3PO4 using Millipore vacuum station. • 15) Add 20 μl Scintillation Liquid to each well of MAPH Filter Plate • 16) Seal MAPH Filter Plate • 17) Store MAPH Filter Plate 30 min in darkness • 18) Quantify radioactivity Results:
(§2) IC50s were calculated for each kinase based on serial dilutions.

CDK4/CycD1 = CDK4/CycD1 (Homo sapiens, UniProt P11802); assay: General kinase assay (Example 80); format: biochemical; settings: ATP 1 μM
Procedure: as §1, §2

CDK6/CycD3 = CDK6/CycD3 (Homo sapiens, UniProt Q00534); assay: General kinase assay (Example 80); format: biochemical; settings: ATP 1 μM
Procedure: as §1, §2

CDK2/CycA = target: T1, CDK2/CycA (Homo sapiens, UniProt P24941); assay: General kinase assay (Example 80); format: biochemical; settings: ATP 1 μM
T1 construct: purchased ProQinase (Freiburg, Germany)
Procedure: (§3) Kinase assays determining CDK2/CyclinA and CDK5/p35 activity were performed as described by the manufacturer's recommendations (ProQinase (Freiburg, Germany) for CDK2/CyclinA and Upstate for CDK5/p35).
as §1, §2

CDK5/p35 = target: T2, CDK5/p35 (Homo sapiens, UniProt Q00535); assay: General kinase assay (Example 80); format: biochemical; settings: ATP 1 μM
T2 construct: purchased Upstate
Procedure: as §3, §1, §2

CDK9/CycT1 = target: T3, CDK9/CycT1 (Homo sapiens, UniProt P50750); assay: General kinase assay (Example 80); format: biochemical; settings: ATP 1 μM
T3 construct: made in house; host or cells: HEK293 cells (ATCC CRL-1573), recombinant adenovirus
Source text: Both cDNA fragments were cloned by PCR into pDONR201 vectors using the gateway recombination system (Invitrogen) according to the manufacturer's recommendations. The fragments were subcloned into a gateway-adapted shuttle vector (pPM7) for production of recombinant adenovirus. All plasmids were verified by restriction digests and sequencing analysis.
Expression and purification of CDK9/Cyclin T1 proteins was in principle performed as described by Cotten et al. (M. Cotten et al., Nucleic acids research, 2003, 31(28), 128).
Kinase assays using CDK9/Cyclin T1 were performed in principle as described by Cotten et al. (M. Cotten et al., Nucleic acids research, 2003, 31(28), 128).
as §2

HCT116 = assay: Growth assay using Alamar Blue; format: cell-based; settings: Homo sapiens, HCT-116, read-out: IC50 against cell line HCT116
Procedure: (§4) Cells were seeded in 384-well plates (white, Greiner: 781080) at a density of […] cells per well in medium (RPMI+10% FCS).
(§5) Cells were incubated in 25 μl medium/well and were grown over night at 37° C., 6% CO2. On the following day compounds were added in DMSO in serial fold dilutions in fresh medium. Negative control wells were incubated without cells. Positive control wells were incubated with cells but without inhibitors (DMSO only). These wells served as data points to determine relative growth (given in % of the DMSO control [=100%]). The cell number was determined by addition of 5 μL Alamar Blue™ (Biosource DAL1100) to each well. Fluorescence was measures with an Analyst GT machine (Molecular Devices) at an excitation wavelength of 560 nm and an emission wavelength of 590 nm.
(§6) The following cell lines were used: A2780 (ECACC order number 93112519; human ovarian carcinoma; Semin Oncol (1984) 11:285; Cancer Res (1987) 47:414), B16F1 (ATCC order number CRL-6323; melanoma; Nat. New Biol. 242: 148-149, 1973); HCT116 (ATCC order number CCL-247; Colorectal carcinoma; Cancer Res (1981) 41:1751; Cancer (1995) 76:201), HT29 (ATTC order number HTB-38; colorectal adenocarcinoma; J. Biol. Chem. 271: 9490-9496, 1996) HepG2 (ATCC order number HB-8065; hepatocellular carcinoma; J. Biol. Chem. 271: 10073-10078, 1996), J774 (ATCC order number TIB-67; reticulum cell sarcoma; J. Biol. Chem. 271: 18431-18436, 1996); MCF7 (ATCC order number HTB-22; Breast carcinoma; J Natl Cancer Inst (1973) 51:1409; Cancer Res (1993) 53:5193), PM1 (obtainable from the National Institute of Allergy and Infectious Diseases; Division of AIDS via the NIH AIDS Research & Reference Reagent Program; Lusso P et al (1995), J Virol 69: 3712-3720) and U373-MAGI-CCR5 (obtainable from the National Institute of Allergy and Infectious Diseases; Division of AIDS via the NIH AIDS Research & Reference Reagent Program; Kensinger R D et al (2004), Antimicrob Agents Chemother 48: 1614-1623).
(§7) IC50s were calculated for each cell line based on serial dilutions.

HepG2 = assay: Growth assay using Alamar Blue; format: cell-based; settings: Homo sapiens, read-out: IC50 against cell line HepG2
Procedure: as §4, §5, §6, §7

PM1 = assay: Growth assay using Alamar Blue; format: cell-based; settings: read-out: IC50 against cell line PM1
Procedure: as §4, §5, §6, §7

U373-MAGI-CCR5E = assay: Growth assay using Alamar Blue; format: cell-based; settings: read-out: IC50 against cell line U373-MAGI-CCR5E
Procedure: as §4, §5, §6, §7

[1] = test system: SNI mice (mechanical allodynia); assay: Spared nerve injury (SNI) model, von Frey assay; format: in vivo; settings: 30 mg/kg per os 30 min prior to measurement, day 107 post SNI, vs vehicle
Procedure: Wildtype mice (strain C3HeB/FeJ) (age, sex and weight matched) were anesthetized with Hypnorm (0.315 mg/ml fentanyl citrate+10 mg/ml fluanisone; Janssen)/Hypnovel (5 mg/ml midazolam; Roche Applied Sciences)/water at a ratio of 1:1:2 at 4 μl/g prior to surgical preparation.
Subsequently, an incision was made under aseptic precautions in the ipsi-lateral right hind leg of all mice just above the level of the knee, exposing the three terminal branches of the sciatic nerve: the common peroneal, tibial, and sural nerves. The common peroneal and tibial nerves were ligated tightly with 7/0 silk and sectioned distal to the ligation removing ≈2 mm of distal nerve stump. The sural branch remained untouched during the procedure (denoted herein “SNI ipsi”). The overlying muscle and skin was sutured, and the animals were allowed to recover and to permit wound healing. […]
Injection of inhibitor or vehicle, and subsequent measurements of paw withdrawal threshold to mechanical stimulation in von Frey assays were performed at day 107 post SNI. Reflex nociceptive responses to mechanical stimulation were measured in a von Frey assay 30 min after each injection. […]
Mechanical thresholds of SNI mice were quantified using the up-down method based on Chaplan et al. (1994) and Malmberg and Basbaum (1998). […]

T3 sequence (P50750 whole entry, species assumed): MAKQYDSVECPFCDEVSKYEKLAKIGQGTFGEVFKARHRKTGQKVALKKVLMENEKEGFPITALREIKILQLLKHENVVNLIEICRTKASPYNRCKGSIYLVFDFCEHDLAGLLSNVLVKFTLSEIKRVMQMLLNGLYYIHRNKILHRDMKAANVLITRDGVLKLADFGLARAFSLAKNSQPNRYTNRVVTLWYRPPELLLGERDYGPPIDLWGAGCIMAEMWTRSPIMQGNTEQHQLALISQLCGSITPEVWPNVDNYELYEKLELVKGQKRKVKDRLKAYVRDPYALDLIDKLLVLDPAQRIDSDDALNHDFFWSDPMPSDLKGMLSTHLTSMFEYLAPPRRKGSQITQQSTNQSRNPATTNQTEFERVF
T3 sequence (O60563 whole entry partner, species assumed): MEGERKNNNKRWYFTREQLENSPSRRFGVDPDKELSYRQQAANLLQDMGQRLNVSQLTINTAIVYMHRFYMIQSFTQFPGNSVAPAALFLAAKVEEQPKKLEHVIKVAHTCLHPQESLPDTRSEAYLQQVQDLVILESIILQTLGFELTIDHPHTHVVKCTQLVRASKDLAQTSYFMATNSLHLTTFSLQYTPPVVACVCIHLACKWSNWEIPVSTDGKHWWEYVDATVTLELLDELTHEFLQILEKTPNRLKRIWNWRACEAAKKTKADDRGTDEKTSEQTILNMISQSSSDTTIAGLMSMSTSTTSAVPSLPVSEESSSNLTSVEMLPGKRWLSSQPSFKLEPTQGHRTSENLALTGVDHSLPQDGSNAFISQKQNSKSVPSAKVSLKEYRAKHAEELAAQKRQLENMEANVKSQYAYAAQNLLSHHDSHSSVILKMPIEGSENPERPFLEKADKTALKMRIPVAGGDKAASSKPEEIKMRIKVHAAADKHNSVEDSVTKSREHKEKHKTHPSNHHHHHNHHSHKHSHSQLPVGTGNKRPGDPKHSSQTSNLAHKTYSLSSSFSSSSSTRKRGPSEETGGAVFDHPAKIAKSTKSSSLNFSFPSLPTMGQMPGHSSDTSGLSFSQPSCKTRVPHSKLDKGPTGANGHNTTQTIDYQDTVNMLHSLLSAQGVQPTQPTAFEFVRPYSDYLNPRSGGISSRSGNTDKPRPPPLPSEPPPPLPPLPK
Chain of CDK1/CycB (P06493 whole entry, species assumed): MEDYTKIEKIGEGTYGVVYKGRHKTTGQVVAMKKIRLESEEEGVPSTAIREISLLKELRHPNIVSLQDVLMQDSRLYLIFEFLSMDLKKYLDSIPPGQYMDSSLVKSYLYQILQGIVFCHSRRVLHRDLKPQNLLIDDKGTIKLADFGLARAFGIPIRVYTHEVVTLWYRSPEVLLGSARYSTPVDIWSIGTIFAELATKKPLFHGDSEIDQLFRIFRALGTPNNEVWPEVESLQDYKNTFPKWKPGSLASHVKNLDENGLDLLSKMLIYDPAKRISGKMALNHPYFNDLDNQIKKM
Chain of CDK1/CycB (P14635 whole entry partner, species assumed): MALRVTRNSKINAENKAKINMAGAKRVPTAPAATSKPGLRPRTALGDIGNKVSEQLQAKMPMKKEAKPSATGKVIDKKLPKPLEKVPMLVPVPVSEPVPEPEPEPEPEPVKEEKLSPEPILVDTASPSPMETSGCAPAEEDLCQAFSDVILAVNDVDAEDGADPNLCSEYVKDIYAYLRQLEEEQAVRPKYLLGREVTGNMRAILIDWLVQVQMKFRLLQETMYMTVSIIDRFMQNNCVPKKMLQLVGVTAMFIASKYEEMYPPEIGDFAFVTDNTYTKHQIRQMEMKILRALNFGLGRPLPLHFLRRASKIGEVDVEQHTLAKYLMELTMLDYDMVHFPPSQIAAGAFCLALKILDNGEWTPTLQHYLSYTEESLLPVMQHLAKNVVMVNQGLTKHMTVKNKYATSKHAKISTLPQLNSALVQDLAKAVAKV
T2 sequence (Q00535 whole entry): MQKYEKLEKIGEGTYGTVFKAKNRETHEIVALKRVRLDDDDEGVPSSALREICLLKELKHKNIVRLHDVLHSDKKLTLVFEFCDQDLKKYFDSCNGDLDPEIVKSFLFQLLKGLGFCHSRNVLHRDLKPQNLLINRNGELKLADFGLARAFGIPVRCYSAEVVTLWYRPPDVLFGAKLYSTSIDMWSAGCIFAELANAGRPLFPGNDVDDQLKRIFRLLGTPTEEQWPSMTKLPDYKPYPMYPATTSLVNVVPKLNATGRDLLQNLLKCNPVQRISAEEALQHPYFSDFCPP
T2 sequence (Q15078 whole entry partner): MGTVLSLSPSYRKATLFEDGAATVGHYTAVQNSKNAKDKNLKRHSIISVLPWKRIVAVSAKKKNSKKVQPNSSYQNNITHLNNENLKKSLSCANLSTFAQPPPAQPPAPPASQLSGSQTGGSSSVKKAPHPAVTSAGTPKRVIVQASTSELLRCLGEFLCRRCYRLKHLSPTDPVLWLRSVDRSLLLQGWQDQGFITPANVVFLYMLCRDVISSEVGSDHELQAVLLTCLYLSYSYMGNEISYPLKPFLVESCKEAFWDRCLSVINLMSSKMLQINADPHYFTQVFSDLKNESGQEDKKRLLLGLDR
Chain of CDK4/CycD1 (P11802 whole entry, species assumed): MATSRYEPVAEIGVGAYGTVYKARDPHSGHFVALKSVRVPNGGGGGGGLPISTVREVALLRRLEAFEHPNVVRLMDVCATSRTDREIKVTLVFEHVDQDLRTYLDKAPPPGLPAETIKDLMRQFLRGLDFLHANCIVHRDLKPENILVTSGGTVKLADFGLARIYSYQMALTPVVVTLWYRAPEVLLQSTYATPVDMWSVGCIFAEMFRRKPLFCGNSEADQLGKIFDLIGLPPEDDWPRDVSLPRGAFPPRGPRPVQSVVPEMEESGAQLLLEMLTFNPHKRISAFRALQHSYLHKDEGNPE
Chain of CDK4/CycD1 (P24385 whole entry partner, species assumed): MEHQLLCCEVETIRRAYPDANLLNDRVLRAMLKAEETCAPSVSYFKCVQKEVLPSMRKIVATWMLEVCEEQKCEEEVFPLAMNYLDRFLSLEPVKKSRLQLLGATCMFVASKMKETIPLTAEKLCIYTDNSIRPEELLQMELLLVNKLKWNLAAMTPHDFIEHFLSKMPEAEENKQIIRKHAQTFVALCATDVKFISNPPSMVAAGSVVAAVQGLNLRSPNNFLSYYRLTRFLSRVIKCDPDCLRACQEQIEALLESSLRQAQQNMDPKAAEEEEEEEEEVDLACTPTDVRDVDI
Chain of CDK6/CycD3 (Q00534 whole entry, species assumed): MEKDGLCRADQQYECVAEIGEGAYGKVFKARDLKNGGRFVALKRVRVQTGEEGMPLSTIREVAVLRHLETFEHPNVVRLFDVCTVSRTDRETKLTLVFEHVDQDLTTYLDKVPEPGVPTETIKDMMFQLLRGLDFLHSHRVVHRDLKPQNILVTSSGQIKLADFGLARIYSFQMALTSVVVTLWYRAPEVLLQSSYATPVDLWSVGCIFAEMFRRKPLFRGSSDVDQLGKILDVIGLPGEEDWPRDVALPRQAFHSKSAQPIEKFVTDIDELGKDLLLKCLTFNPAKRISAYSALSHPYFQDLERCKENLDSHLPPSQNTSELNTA
Chain of CDK6/CycD3 (P30281 whole entry partner, species assumed): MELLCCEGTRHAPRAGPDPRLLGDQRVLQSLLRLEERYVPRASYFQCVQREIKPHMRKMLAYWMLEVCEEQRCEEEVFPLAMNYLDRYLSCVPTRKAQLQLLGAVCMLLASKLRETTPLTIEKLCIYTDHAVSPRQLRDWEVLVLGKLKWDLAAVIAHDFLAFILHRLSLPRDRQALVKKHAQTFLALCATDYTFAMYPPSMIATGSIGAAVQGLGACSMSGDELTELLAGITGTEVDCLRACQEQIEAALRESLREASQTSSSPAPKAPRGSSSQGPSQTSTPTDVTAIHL

| IC50 (CDK1/CycB) | IC50 (CDK4/CycD1) | IC50 (CDK6/CycD3) | IC50 (CDK2/CycA) | IC50 (CDK5/p35) | IC50 (CDK9/CycT1) | IC50 (HCT116) | IC50 (HepG2) | SMILES | IC50 (PM1) | IC50 (U373-MAGI-CCR5E) | melting point | paw withdrawal threshold to mechanical stimulation (von Frey), mechanical allodynia [1] |
| --- | --- | --- | --- | --- | --- | --- | --- | --- | --- | --- | --- | --- |
| < 5 µM | < 10 µM | < 10 µM | < 2 µM | < 5 µM | < 0.1 µM | < 2 µM | > 10 µM | CNS(=O)(=O)Cc1cccc(Nc2cc(-c3ccccc3OC)ncn2)c1 [Compound 49, C-{3-[6-(2-methoxy-phenyl)-pyrimidin-4-ylamino]-phenyl}-N-methyl-methanesulfonamide] | < 5 µM | – | – | – |
| – | – | – | – | – | – | – | – | CCOc1ccccc1-c1cc(Nc2cccc(CS(=O)(=O)NC)c2)ncn1 [Compound 43, C-{3-[6-(2-Ethoxy-phenyl)-pyrimidin-4-ylamino]-phenyl}-N-methyl-methanesulfonamide] | – | – | – | hypoalgesic effect; also recorded: significant increase of threshold values |
| < 10 µM | > 10 µM | – | < 10 µM | < 10 µM | < 0.5 µM | < 5 µM | – | COCCNS(=O)(=O)Cc1cccc(Nc2cc(-c3ccccc3OC)ncn2)c1 [Compound 86, N-(2-methoxy-ethyl)-C-{3-[6-(2-methoxy-phenyl)-pyrimidin-4-ylamino]-phenyl}-methanesulfonamide] | – | – | – | – |

| SMILES | IC50 (CDK1/CycB) | IC50 (CDK4/CycD1) | IC50 (CDK6/CycD3) | IC50 (CDK2/CycA) | IC50 (CDK5/p35) | IC50 (CDK9/CycT1) | IC50 (HCT116) | IC50 (HepG2) | IC50 (PM1) | IC50 (U373-MAGI-CCR5E) | melting point | paw withdrawal threshold to mechanical stimulation (von Frey), mechanical allodynia [1] |
| --- | --- | --- | --- | --- | --- | --- | --- | --- | --- | --- | --- | --- |
| COc1ccccc1-c1cc(Nc2cccc(CS(=O)(=O)N(C)C)c2)ncn1 [Compound 20, C-{3-[6-(2-methoxy-phenyl)-pyrimidin-4-ylamino]-phenyl}-N,N-dimethyl-methanesulfonamide] | < 5 µM | – | – | < 2 µM | < 5 µM | < 0.5 µM | < 5 µM | – | – | < 10 µM | 187.5 to 188.8 °C | – |
